The record followed here is patent publication US10562850B2, “Human plasma kallikrein inhibitors” (priority 2015, dated 2020).

Each structure is given as a SMILES string.

human plasma kallikrein, sequence (P03952 391-638): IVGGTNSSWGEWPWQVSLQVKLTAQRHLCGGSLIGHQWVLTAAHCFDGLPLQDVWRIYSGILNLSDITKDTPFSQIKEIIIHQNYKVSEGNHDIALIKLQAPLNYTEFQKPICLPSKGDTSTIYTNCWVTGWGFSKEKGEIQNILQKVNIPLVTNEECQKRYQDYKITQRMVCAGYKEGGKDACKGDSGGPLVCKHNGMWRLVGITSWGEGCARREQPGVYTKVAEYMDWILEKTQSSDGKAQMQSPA
human plasma kallikrein, sequence (P03952 20-390 partner): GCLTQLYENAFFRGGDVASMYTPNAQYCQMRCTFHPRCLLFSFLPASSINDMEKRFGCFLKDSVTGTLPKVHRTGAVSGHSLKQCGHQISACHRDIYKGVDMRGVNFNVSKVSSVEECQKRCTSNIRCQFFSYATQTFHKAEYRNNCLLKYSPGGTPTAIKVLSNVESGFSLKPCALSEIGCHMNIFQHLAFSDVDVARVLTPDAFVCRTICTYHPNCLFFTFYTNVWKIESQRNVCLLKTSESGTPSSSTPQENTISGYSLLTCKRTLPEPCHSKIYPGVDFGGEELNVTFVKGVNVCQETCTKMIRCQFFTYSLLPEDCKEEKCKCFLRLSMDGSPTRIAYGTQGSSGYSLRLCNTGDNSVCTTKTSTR

The experiment concerns the target human plasma kallikrein (Homo sapiens (Human), UniProt P03952). As to the kind of experiment: Plasma Kallikrein Activity Assay (chromogenic substrate S2302). Format: biochemical. The note with it: 2 nM kallikrein, 80 μM S2302, 30° C., pH 7.8; Cheng-Prusoff. Here is the method:
Plasma Kallikrein Activity Assay.
The effect of compounds of the invention on human plasma kallikrein activity was determined using the chromogenic substrates (DiaPharma Group, Inc., West Chester, Ohio, USA). In these experiments, 2 nM kallikrein (Enzyme Research Laboratories, South Bend, Ind., USA) was incubated with 80 μM S2302 (H-D-Pro-Phe-Arg-p-nitroaniline) in the absence or presence of increasing concentrations of compounds of the invention in a final volume of 200 μL Tris-HCl buffer (200 mM NaCl; 2.5 mM CaCl2; 50 mM Tris-HCl, pH 7.8).
After incubation at 30° C., the activity of kallikrein was measured as a change in absorbance at OD 405 nm using BioTek PowerWave X340 Microplate Reader (Winooski, Vt., USA). Data were analyzed using SigmaPlot software (Systat Software, Inc., San Jose, Calif., USA) (Four Parameter Logistic Curve). Ki values for the inhibitors were determined using the Cheng-Prusoff equation (Biochem. Pharmacol. 1973, 22, 3099).
`NC(CCC1CC1)(c1ccc(F)c(NC(=O)[C@H]2C[C@](O)(c3ccccc3)CN2C(=O)Nc2ccc(Cl)cn2)c1)c1ccccn1` (stereo partly drawn) [Compound 32a, (2R,4S)-N2-(5-((+)-1-amino-3-cyclopropyl-1-(pyridin-2-yl)propyl)-2-fluorophenyl)-N1-(5-chloropyridin-2-yl)-4-hydroxy-4-phenylpyrrolidine-1,2-dicarboxamide]: the Ki is less than 50 nM.
The same measure for `O=C(Nc1ccc(Cl)cn1)NC(CCC1CC1)(c1ccc(F)c(NC(=O)[C@H]2C[C@](O)(c3ccccc3)CN2C(=O)Nc2ccc(Cl)cn2)c1)c1ccccn1` (stereo partly drawn) [Compound 32b, (2R,4S)-N1-(5-chloropyridin-2-yl)-N2-(5-(1-(3-(5-chloropyridin-2-yl)ureido)-3-cyclopropyl-1-(pyridin-2-yl)propyl)-2-fluorophenyl)-4-hydroxy-4-phenylpyrrolidine-1,2-dicarboxamide]: more than 100 nM; for `CC(C)(C)[S@@+]([O-])NC(CCC1CC1)(c1cccc(C#N)c1)c1ccc(F)c(NC(=O)[C@H]2C[C@H](N=[N+]=[N-])CN2C(=O)Nc2ccc(Cl)cc2)c1` (stereo partly drawn) [Compound 33b, (2R,4S)-4-azido-N1-(4-chlorophenyl)-N2-(5-((+)-1-(3-cyanophenyl)-3-cyclopropyl-1-((R)-1,1-dimethylethylsulfinamido)propyl)-2-fluorophenyl)pyrrolidine-1,2-dicarboxamide]: more than 100 nM; for `N#Cc1cccc(C(N)(CCC2CC2)c2ccc(F)c(NC(=O)[C@H]3C[C@H](N)CN3C(=O)Nc3ccc(Cl)cc3)c2)c1` (stereo partly drawn) [Compound 33d, (2R,4S)-4-amino-N2-(5-((+)-1-amino-1-(3-cyanophenyl)-3-cyclopropylpropyl)-2-fluorophenyl)-N1-(4-chlorophenyl)pyrrolidine-1,2-dicarboxamide]: more than 100 nM.
`CO[C@]1(c2ccccc2)C[C@H](C(=O)Nc2cc(C(CCC3CC3)(N[S@@+]([O-])C(C)(C)C)c3ccccn3)ccc2F)N(C(=O)OC(C)(C)C)C1` (stereo partly drawn) [Compound 34b, (2R,4S)-tert-butyl-2-(5-((+)-3-cyclopropyl-1-((S)-1,1-dimethylethylsulfinamido)-1-(pyridin-2-yl)propyl)-2-fluorophenylcarbamoyl)-4-methoxy-4-phenylpyrrolidine-1-carboxylate]: the Ki was more than 100 nM.
The value for `CO[C@]1(c2ccccc2)C[C@H](C(=O)Nc2cc(C(N)(CCC3CC3)c3ccccn3)ccc2F)N(C(=O)Nc2ccc(Cl)cc2)C1` (stereo partly drawn) [Compound 34d, (2R,4S)-N2-(5-((+)-1-amino-3-cyclopropyl-1-(pyridin-2-yl)propyl)-2-fluorophenyl)-N1-(4-chlorophenyl)-4-methoxy-4-phenylpyrrolidine-1,2-dicarboxamide] was less than 50 nM; that for `CO[C@]1(c2ccccc2)C[C@H](C(=O)Nc2cc(C(N)(CCC3CC3)c3ccccn3)ccc2F)N(C(=O)Nc2ccc(Cl)cn2)C1` (stereo partly drawn) [Compound 35a, (2R,4S)-N2-(5-((+)-1-amino-3-cyclopropyl-1-(pyridin-2-yl)propyl)-2-fluorophenyl)-N1-(5-chloropyridin-2-yl)-4-methoxy-4-phenylpyrrolidine-1,2-dicarboxamide] was 50 to 100 nM; that for `CO[C@@H]1C[C@H](C(=O)Nc2cc(C(N)(CCC3CC3)c3ccccn3)ccc2F)N(C(=O)Nc2ccc(Cl)cn2)C1` (stereo partly drawn) [Compound 36d, (2R,4R)-N2-(5-((+)-1-amino-3-cyclopropyl-1-(pyridin-2-yl)propyl)-2-fluorophenyl)-N1-(5-chloropyridin-2-yl)-4-methoxypyrrolidine-1,2-dicarboxamide] was more than 100 nM.
Regarding `CO[C@@H]1C[C@H](C(=O)Nc2cc(C(N)(CCC3CC3)c3ccccn3)ccc2F)N(C(=O)Nc2ccc(Cl)cn2)C1` (stereo partly drawn) [Compound 37d, (2R,4R)-N2-(5-((+)-1-amino-3-cyclopropyl-1-(pyridin-2-yl)propyl)-2-fluorophenyl)-N1-(5-chloropyridin-2-yl)-4-methoxypyrrolidine-1,2-dicarboxamide], the inhibition constant Ki was less than 50 nM.
The same measure for `CCC1(O)C[C@H](C(=O)Nc2cc(C(N)(CCC3CC3)c3ccccn3)ccc2F)N(C(=O)Nc2ccc(Cl)cn2)C1` (stereo partly drawn) [Compound 38d, (2R)-N2-(5-((+)-1-amino-3-cyclopropyl-1-(pyridin-2-yl)propyl)-2-fluorophenyl)-N1-(5-chloropyridin-2-yl)-4-ethyl-4-hydroxypyrrolidine-1,2-dicarboxamide]: less than 50 nM; for `NC(CCC1CC1)(c1ccncc1)c1ccc(F)c(NC(=O)[C@H]2C[C@](O)(c3ccccc3)CN2C(=O)Nc2ccc(Cl)cn2)c1` (stereo partly drawn) [Compound 39h, (2R,4S)-N2-(5-((+)-1-amino-3-cyclopropyl-1-(pyridin-4-yl)propyl)-2-fluorophenyl)-N1-(5-chloropyridin-2-yl)-4-hydroxy-4-phenylpyrrolidine-1,2-dicarboxamide]: less than 50 nM.
The same measure for `NC(CCC1CC1)(c1ccncc1)c1ccc(F)c(NC(=O)[C@H]2C[C@](O)(c3ccccc3)CN2C(=O)Nc2ccc(Cl)cc2)c1` (stereo partly drawn) [Compound 40a, (2R,4S)-N2-(5-((+)-1-amino-3-cyclopropyl-1-(pyridin-4-yl)propyl)-2-fluorophenyl)-N1-(4-chlorophenyl)-4-hydroxy-4-phenylpyrrolidine-1,2-dicarboxamide]: less than 50 nM.
The same measure for `CNC(CCC1CC1)(c1ccncc1)c1ccc(F)c(NC(=O)[C@H]2C[C@](O)(c3ccccc3)CN2C(=O)Nc2ccc(Cl)cn2)c1` (stereo partly drawn) [Compound 41a, (2R,4S)-N1-(5-chloropyridin-2-yl)-N2-(5-((+)-3-cyclopropyl-1-(methylamino)-1-(pyridin-4-yl)propyl)-2-fluorophenyl)-4-hydroxy-4-phenylpyrrolidine-1,2-dicarboxamide]: less than 50 nM; for `CO[C@@H]1C[C@H](C(=O)Nc2cc(C(CCC3CC3)n3ccccc3=O)ccc2F)N(C(=O)Nc2ccc(Cl)cn2)C1` (stereo partly drawn) [Compound 42l, (2R,4R)-N1-(5-chloropyridin-2-yl)-N2-(5-(3-cyclopropyl-1-(2-oxopyridin-1(2H)-yl)propyl)-2-fluorophenyl)-4-methoxypyrrolidine-1,2-dicarboxamide]: less than 50 nM; for `CO[C@@H]1C[C@H](C(=O)Nc2cc(C(CCC3CC3)n3ccccc3=O)ccc2F)N(C(=O)Nc2ccc(Cl)cn2)C1` (stereo partly drawn) [Compound 43m, (2R,4R)-N1-(5-chloropyridin-2-yl)-N2-(5-((+)-3-cyclopropyl-1-(2-oxopyridin-1(2H)-yl)propyl)-2-fluorophenyl)-4-methoxypyrrolidine-1,2-dicarboxamide]: 50 to 100 nM.
`CO[C@@H]1C[C@H](C(=O)Nc2cc(C(CCC3CC3)N3CCCCC3=O)ccc2F)N(C(=O)Nc2ccc(Cl)cn2)C1` (stereo partly drawn) [Compound 44e, (2R,4R)-N1-(5-chloropyridin-2-yl)-N2-(5-((+)-3-cyclopropyl-1-(2-oxopiperidin-1-yl)propyl)-2-fluorophenyl)-4-methoxypyrrolidine-1,2-dicarboxamide] yielded a Ki of more than 100 nM.
The same measure for `CO[C@]1(c2ccccc2)C[C@H](C(=O)Nc2cc(C(N)(CCC3CC3)c3ccncc3)ccc2F)N(C(=O)Nc2ccc(Cl)cn2)C1` (stereo partly drawn) [Compound 45c, (2R,4S)-N2-(5-((+)-1-amino-3-cyclopropyl-1-(pyridin-4-yl)propyl)-2-fluorophenyl)-N1-(5-chloropyridin-2-yl)-4-methoxy-4-phenylpyrrolidine-1,2-dicarboxamide]: more than 100 nM; for `CO[C@@H]1C[C@H](C(=O)Nc2cc(C(N)(CCC3CC3)c3ccnc(C)c3)ccc2F)N(C(=O)Nc2ccc(Cl)cn2)C1` (stereo partly drawn) [Compound 46k, (2R,4R)-N2-(5-((+)-1-amino-3-cyclopropyl-1-(2-methylpyridin-4-yl)propyl)-2-fluorophenyl)-N1-(5-chloropyridin-2-yl)-4-methoxypyrrolidine-1,2-dicarboxamide]: less than 50 nM.
The value for `NC(CCC1CC1)(c1ccncc1)c1ccc(F)c(NC(=O)[C@H]2C[C@H](c3ccccc3)CN2C(=O)Nc2ccc(Cl)cn2)c1` (stereo partly drawn) [Compound 47d, (2R,4R)-N2-(5-((+)-1-amino-3-cyclopropyl-1-(pyridin-4-yl)propyl)-2-fluorophenyl)-N1-(5-chloropyridin-2-yl)-4-phenylpyrrolidine-1,2-dicarboxamide] was 50 to 100 nM; that for `C[C@H]1C[C@H](C(=O)Nc2cc(C(N)(CCC3CC3)c3ccncc3)ccc2F)N(C(=O)Nc2ccc(Cl)cn2)C1` (stereo partly drawn) [Compound 48d, (2R,4S)-N2-(5-((+)-1-amino-3-cyclopropyl-1-(pyridin-4-yl)propyl)-2-fluorophenyl)-N1-(5-chloropyridin-2-yl)-4-methylpyrrolidine-1,2-dicarboxamide] was less than 50 nM; that for `C[C@@H]1C[C@H](C(=O)Nc2cc(C(N)(CCC3CC3)c3ccncc3)ccc2F)N(C(=O)Nc2ccc(Cl)cn2)C1` (stereo partly drawn) [Compound 49d, (2R,4R)-N2-(5-((+)-1-amino-3-cyclopropyl-1-(pyridin-4-yl)propyl)-2-fluorophenyl)-N1-(5-chloropyridin-2-yl)-4-methylpyrrolidine-1,2-dicarboxamide] was 50 to 100 nM.
The same measure for `CCO[C@@H]1C[C@H](C(=O)Nc2cc(C(N)(CCC3CC3)c3ccncc3)ccc2F)N(C(=O)Nc2ccc(Cl)cn2)C1` (stereo partly drawn) [Compound 51b, (2R,4R)-N2-(5-((+)-1-amino-3-cyclopropyl-1-(pyridin-4-yl)propyl)-2-fluorophenyl)-N1-(5-chloropyridin-2-yl)-4-ethoxypyrrolidine-1,2-dicarboxamide]: less than 50 nM.

In general, Ki refers to the equilibrium dissociation constant of an inhibitor or competing ligand from its target. Higher therefore signals a looser hold on the target.
